Test [1] deals with acute inflammatory response (carrageenan paw edema). Kind of test: Rat carrageenan paw edema assay. Type of test: in vivo. The settings on record: po; for inhibition in vivo at 50 mg/kg: 50 mg/kg peroral, 1 hour prior to carrageenan, edema at 3 hours. The protocol:
The compounds of the invention are tested in the rat carrageenan paw edema assay to determine their ability to inhibit the acute inflammatory response. 140-180 gm male Sprague-Dawley rats, in groups of 6 animals, are injected subcutaneously in the right paw with 0.1 ml of 1% carrageenan at zero time. Mercury plethysmographic readings (ml) of the paw are made at zero time and 3 hours later. Test compounds are suspended or dissolved in 0.5% methylcellulose and given perorally 1 hour prior to carrageenan administration. The increase in paw volume (edema in ml.) produced by the carrageenan is measured. […] Unpaired Student's t-test is used to determine statistical significance.

The test system of test [2] is LTD4 induced bronchoconstriction. As to the kind of experiment: In vivo inhibition of LTD4 induced bronchospasm in guinea pigs (exogenously administered leukotrienes). Further details: species or system guinea pig. The settings on record: Cavia porcellus, 10 minutes before induction of bronchospasm (LTD4).

Take `COc1ccc(-c2nc(COc3cccc(NS(=O)(=O)C(F)(F)F)c3)c(C)o2)cc1` [Example 1, 1,1,1-Trifluoro-N-[3-[[2-(4-methoxyphenyl)-5-methyl-4-oxazolyl]methoxy]phenyl]methanesulfonamide]: in test [1], the inhibition in vivo at 50 mg/kg was found to be 34%. The compound further had an inhibition in vivo at 25 mg/kg in test [2] (intraduodenal, intraduodenally) of 24%. Regarding `Cc1oc(-c2ccccc2)nc1COc1cccc(NS(=O)(=O)C(F)(F)F)c1` [Example 2, 1,1,1-Trifluoro-N-[3-[(5-methyl-2-phenyl-4-oxazolyl)methoxy]phenyl]methanesulfonamide], the inhibition in vivo at 50 mg/kg in test [1] came to 18%. This compound also yielded an inhibition in vivo at 25 mg/kg in test [2] (intraduodenal, intraduodenally) of 56%.

On to `O=S(=O)(Nc1ccccc1OCc1csc(-c2ccccc2)n1)C(F)(F)F` [Example 4, 1,1,1-Trifluoro-N-[2-[(2-phenyl-4-thiazolyl)methoxy]phenyl]methanesulfonamide], for which, in test [2] (intraduodenal, intraduodenally), 25 mg/kg produced 10% inhibition in vivo. The same measure, in the same setting: as for `c1ccc(-c2nc(COc3cccc(Cc4nnn[nH]4)c3)cs2)cc1` [Example 5, 5-[[3-(2-Phenyl-4-thiazolylmethoxy)phenyl]methyl]-1H-tetrazole], the figure is 69%. The compound `CCN(CC)C(=O)N(C)CC(O)c1cccc(OCc2csc(-c3ccccc3)n2)c1` (stereo not drawn) [Example 6, N,N-Diethyl-N'-[2-hydroxy-2-[3-(2-phenyl-4-thiazolylmethoxy)phenyl]ethyl]-N-methylurea] gave an inhibition in vivo at 50 mg/kg in test [1] of 57%. In test [2] (intraduodenal, intraduodenally), the inhibition in vivo at 25 mg/kg came out at 47%. In test [2] (intraduodenal, intraduodenally), `O=S(=O)(Nc1cccc(OCc2cccc(-c3ccccc3)n2)c1)C(F)(F)F` [Example 7, 1,1,1-Trifluoro-N-[3-[(2-phenyl-6-pyridinyl)methoxy]phenyl]methanesulfonamide] returned an inhibition in vivo at 25 mg/kg of 68%.

`O=S(=O)(Nc1cccc(OCc2csc(-c3ccccc3F)n2)c1)C(F)(F)F` [Example 9C, 1,1,1-Trifluoro-N-[3-[[2-(2-fluorophenyl)-4-thiazolyl]methoxy]phenyl]methanesulfonamide]: the inhibition in vivo at 50 mg/kg in test [1] is 53%. The compound also returned an inhibition in vivo at 25 mg/kg in test [2] (intraduodenal, intraduodenally) of 73%. For the same compound, in test [2] (po, 10 mg/kg, intragastrically), 10 mg/kg produced 89% inhibition in vivo. In turn, `O=S(=O)(Nc1cccc(OCc2csc(-c3c(F)cccc3F)n2)c1)C(F)(F)F` [Example 9D, 1,1,1-Trifluoro-N-[3-[[2-(2,6-difluorophenyl)-4-thiazolyl]methoxy]phenyl]methanesulfonamide] returned an inhibition in vivo at 50 mg/kg in test [1] of 37%. In test [2] (intraduodenal, intraduodenally), this compound registered an inhibition in vivo at 25 mg/kg of 72%. In test [1], `O=S(=O)(Nc1cccc(OCc2csc(-c3ccc(C(F)(F)F)cc3)n2)c1)C(F)(F)F` [Example 9E, 1,1,1-Trifluoro-N-[3-[[2-(4-trifluoromethylphenyl)-4-thiazolyl]methoxy]phenyl]-methanesulfonamide] came in with an inhibition in vivo at 50 mg/kg of 66%.

In test [1], `O=S(=O)(Nc1cccc(OCc2csc(-c3cccc(C(F)(F)F)c3)n2)c1)C(F)(F)F` [Example 9F, 1,1,1-Trifluoro-N-[3-[[2-(3-trifluoromethylphenyl)-4-thiazolyl]methoxy]phenyl]methanesulfonamide] yielded an inhibition in vivo at 50 mg/kg of 23%. Besides, at 25 mg/kg the inhibition in vivo in test [2] (intraduodenal, intraduodenally) was 50%. Turning to `O=S(=O)(Nc1cccc(OCc2csc(Cc3ccccc3)n2)c1)C(F)(F)F` [Example 9I, 1,1,1-Trifluoro-N-[3-[[2-(benzyl)-4-thiazolyl]methoxy]phenyl]methanesulfonamide], the inhibition in vivo at 50 mg/kg in test [1] came to 22%. Moreover, the inhibition in vivo at 25 mg/kg turned out to be 94% in test [2] (intraduodenal, intraduodenally) and 47% in test [2] (po, intragastrically). Regarding `COc1ccc2c(c1)c(CC(=O)O)c(C)n2C(=O)c1ccc(Cl)cc1` [Indomethacin, reference compound], the ED50 in test [1] (3 h, read-out: Oral ED50 (95% C.L.)) was 3.7 mg/kg.

As a reminder, the inhibition in vivo is the relative decrease from the control value, in per cent. High values mean strong suppression, low ones little suppression. A word on the ED50: it is the dose that gives a 50% effect, or the effect in half of the subjects.

(Values after patent US5103014A, “Certain 3,3'-[[[(2-phenyl-4-thiazolyl)methoxy]phenyl]methylene]dithiobis-propano ic acid derivatives” (American Home Products Corporation, priority 1990, dated 1992).)
